The test addresses SOS1/KRAS WT (Homo sapiens (Human), UniProt Q07889). The test is described as follows: SOS1/KRAS WT HTRF binding assay (FRET-based protein-protein interaction). The conditions noted are these: inhibition of His6-SOS1 (aa564-1049, 40 nM) binding to GST-KRAS-WT (aa1-188, 40 nM); at least two independent replicates; read-out: SOS1/KRAS WT HTRF Binding assay pIC50 (converted). The text has this:
The capacity of compounds to inhibit SOS1 binding to KRAS-WT (wild-type) was quantified using a FRET-based protein-protein interaction assay. The assay is based on the transfer of energy between two fluorophores, a donor and an acceptor, when in close proximity. In this instance, the donor is a Europium-conjugated α-GST antibody that binds to GST-tagged KRAS-WT, and the acceptor is an XL665-conjugated α-His 6 antibody that binds to His 6-tagged SOS1. Binding of SOS1 to KRAS-WT results in an increased fluorescent signal at emission wavelength of 665 nm which can be detected on the EnVision plate reader. Compounds that inhibit binding will reduce the 665 nm signal emitted. Recombinant KRAS-WT protein (40 nM; Human KRAS, aa1-188 recombinant protein with N-terminal GST-tag) and SOS1 protein (40 nM; Human SOS1 exchange domain, aa564-1049 with N-terminal 6His-tag) were mixed together in assay buffer (5 mM HEPES pH7.3, 150 mM NaCl, 10 mM EDTA, 5 mM MgCl2, 0.05% BSA, 0.0025% NP-40, 1 mM DTT and 100 mM KF) and incubated at room temperature with a dose response of compound in a 384-well low volume white plate and a final volume of 5 ul. After a 60 minute incubation, 5 ul of 4 nM anti-GST-Eu(K) (Cisbio, France) combined with 20 nM anti-6His-XL665 (Cisbio, France), diluted in assay buffer, was added to the plate. Following a further 4 hr incubation at room temperature, time-resolved fluorescence was measured on the EnVision plate reader. DMSO (0.05%) and 10 μM reference compound were used to generate the Max and Min assay signals, respectively. Data was analysed using a four-parameter logistic model to calculate IC50 values, with at least two independent replicates performed for each compound.
Data was analyzed using a four-parameter logistic model to calculate IC50 values, with at least two independent replicates performed for each compound.
On the technique in general: In TR-FRET formats the signal depends on donor and acceptor labels being close together.
Sequence of SOS1/KRAS WT (Q07889 564-1049): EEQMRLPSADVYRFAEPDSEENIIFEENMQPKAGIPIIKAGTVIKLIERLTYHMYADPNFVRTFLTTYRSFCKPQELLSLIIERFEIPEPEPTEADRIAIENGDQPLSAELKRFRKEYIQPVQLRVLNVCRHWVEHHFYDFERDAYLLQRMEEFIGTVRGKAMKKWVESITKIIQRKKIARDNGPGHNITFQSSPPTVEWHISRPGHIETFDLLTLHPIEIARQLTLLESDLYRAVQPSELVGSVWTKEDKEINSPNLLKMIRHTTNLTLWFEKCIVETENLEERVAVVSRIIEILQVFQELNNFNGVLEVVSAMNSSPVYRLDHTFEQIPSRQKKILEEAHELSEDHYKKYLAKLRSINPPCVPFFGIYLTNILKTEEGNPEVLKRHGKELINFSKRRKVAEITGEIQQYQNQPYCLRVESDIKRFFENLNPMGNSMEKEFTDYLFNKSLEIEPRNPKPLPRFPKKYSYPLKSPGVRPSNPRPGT
On to `COCCn1c(=O)n(C)c2cc3c(C)nnc(N[C@H](C)c4cccc(C(F)F)c4F)c3cc21` [Compound 28, 3-(2-methoxyethyl)-1,8-dimethyl-5-[[(1R)-1-[3-(difluoromethyl)-2-fluoro-phenyl]ethyl]amino]imidazo[4,5-g]phthalazin-2-one], for which the IC50 is 12.3 nM.

For `Cc1nnc(N[C@H](C)c2cccc(C(F)F)c2F)c2cc3c(cc12)OC(C)(C)C(=O)N3C` [Compound 30, 2,2,4,9-tetramethyl-6-[[(1R)-1-[3-(difluoromethyl)-2-fluoro-phenyl]ethyl]amino]pyridazino[4,5-g][1,4]benzoxazin-3-one], the IC50 was 14.8 nM. Then `Cc1nnc(N[C@H](C)c2cccc(C(F)F)c2F)c2cc3c(cc12)n(C)c(=O)n3C` [Compound 31, 1,3,8-trimethyl-5-[[(1R)-1-[3-(difluoromethyl)-2-fluoro-phenyl]ethyl]amino]imidazo[4,5-g]phthalazin-2-one], with 9.55 nM; and `Cc1nnc(N[C@H](C)c2cccc(C(F)(F)F)c2)c2cc3c(cc12)C(C)(C)C(=O)N3C` [Compound 32, 1,3,3,5-tetramethyl-8-[[(1R)-1-[3-(trifluoromethyl)phenyl]ethyl]amino] pyrrolo[2,3-g]phthalazin-2-one], with 10.7 nM; and `Cc1nnc(N[C@H](C)c2cccc(C(F)(F)C(C)(C)O)c2F)c2cc3c(cc12)n(C)c(=O)n3C1CC1` [Compound 33, 3-cyclopropyl-1,8-dimethyl-5-[[(1R)-1-[3-(1,1-difluoro-2-hydroxy-2-methyl-propyl)-2-fluoro-phenyl]ethyl]amino]imidazo[4,5-g]phthalazin-2-one], with 9.77 nM.

On to `Cc1nnc(N[C@H](C)c2cccc(C(F)F)c2F)c2cc3c(cc12)n(C)c(=O)n3C1CC1` [Compound 34, 3-cyclopropyl-1,8-dimethyl-5-[[(1R)-1-[3-(difluoromethyl)-2-fluoro-phenyl]ethyl]amino]imidazo[4,5-g]phthalazin-2-one], for which the IC50 was 9.77 nM. Then `COCCn1c(=O)n(C)c2cc3c(C)nnc(N[C@H](C)c4cccc(C(F)(F)F)c4F)c3cc21` [Compound 35, 3-(2-methoxyethyl)-1,8-dimethyl-5-[[(1R)-1-[2-fluoro-3-(trifluoromethyl)phenyl]ethyl]amino] imidazo[4,5-g]phthalazin-2-one], with 10.7 nM; and `COCC(F)(F)c1cccc([C@@H](C)Nc2nnc(C)c3cc4c(cc23)n(C)c(=O)n4C)c1F` [Compound 36, 5-[[(1R)-1-[3-(1,1-difluoro-2-methoxy-ethyl)-2-fluoro-phenyl]ethyl]amino]-1,3,8-trimethyl-imidazo[4,5-g]phthalazin-2-one], with 12 nM; and `COCCn1c(=O)n(C)c2cc3c(C)nnc(N[C@H](C)c4cccc(C(F)(F)CO)c4F)c3cc21` [Compound 37, 3-(2-methoxyethyl)-1,8-dimethyl-5-[[(1R)-1-[3-(1,1-difluoro-2-hydroxy-ethyl)-2-fluoro-phenyl]ethyl]amino]imidazo[4,5-g]phthalazin-2-one], with 10.5 nM. Then `Cc1nnc(N[C@H](C)c2cccc(C(F)(F)F)c2F)c2cc3c(cc12)n(C)c(=O)n3C(C)C` [Compound 38, 3-isopropyl-1,8-dimethyl-5-[[(1R)-1-[2-fluoro-3-(trifluoromethyl)phenyl]ethyl]amino] imidazo[4,5-g]phthalazin-2-one], with 7.59 nM; and `Cc1c(C#N)cccc1[C@@H](C)Nc1nnc(C)c2cc3c(cc12)n(C)c(=O)n3C` [Compound 39, 2-methyl-3-[(1R)-1-[(1,3,8-trimethyl-2-oxo-imidazo[4,5-g]phthalazin-5-yl)amino]ethyl]benzonitrile], with 44.7 nM. Then `Cc1nnc(N[C@H](C)c2cccc(C(F)(F)F)c2F)c2cc3c(cc12)n(C)c(=O)n3C` [Compound 40, 1,3,8-trimethyl-5-[[(1R)-1-[2-fluoro-3-(trifluoromethyl)phenyl]ethyl]amino]imidazo[4,5-g]phthalazin-2-one], with 8.91 nM; and `Cc1nnc(N[C@H](C)c2cccc(C(F)(F)CN)c2F)c2cc3c(cc12)n(C)c(=O)n3C` [Compound 41, 1,3,8-trimethyl-5-[[(1R)-1-[3-(2-amino-1,1-difluoro-ethyl)-2-fluoro-phenyl]ethyl]amino]imidazo[4,5-g]phthalazin-2-one], with 16.2 nM; and `Cc1nnc(N[C@H](C)c2cccc(C(F)(F)F)c2)c2cc3c(cc12)OCCC(=O)N3C` [Compound 42, 5,10-dimethyl-7-[[(1R)-1-[3-(trifluoromethyl)phenyl]ethyl]amino]-2,3-dihydropyridazino[4,5-h][1,5]benzoxazepin-4-one], with 34.7 nM.

On to `Cc1nnc(N[C@H](C)c2cccc(C(F)F)c2F)c2cc3c(cc12)n(C)c(=O)n3C(C)C` [Compound 43, 3-isopropyl-1,8-dimethyl-5-[[(1R)-1-[3-(difluoromethyl)-2-fluoro-phenyl]ethyl]amino]imidazo[4,5-g]phthalazin-2-one], for which the IC50 is 2.82 nM. `Cc1nnc(N[C@H](C)c2cccc(C(F)F)c2F)c2cc3c(cc12)C(C)(C)C(=O)N3C` [Compound 44, 1,3,3,5-tetramethyl-8-[[(1R)-1-[3-(difluoromethyl)-2-fluoro-phenyl]ethyl]amino]pyrrolo[2,3-g]phthalazin-2-one]: the IC50 was 8.71 nM. Then `Cc1c(C#N)cccc1[C@@H](C)Nc1nnc(C)c2cc3c(cc12)n(C(C)C)c(=O)n3C` [Compound 45, 2-methyl-3-[(1R)-1-[(3-isopropyl-1,8-dimethyl-2-oxo-imidazo[4,5-g]phthalazin-5-yl)amino]ethyl]benzonitrile], with 9.77 nM; and `Cc1nnc(N[C@H](C)c2cccc(C(F)(F)C(C)(C)O)c2F)c2cc3c(cc12)C(C)(C)C(=O)N3C` [Compound 46, 1,3,3,5-tetramethyl-8-[[(1R)-1-[3-(1,1-difluoro-2-hydroxy-2-methyl-propyl)-2-fluoro-phenyl]ethyl]amino]pyrrolo[2,3-g]phthalazin-2-one], with 11 nM.

For `Cc1c(C#N)cccc1[C@@H](C)Nc1nnc(C)c2cc3c(cc12)n(C1CC1)c(=O)n3C` [Compound 47, 2-methyl-3-[(1R)-1-[(3-cyclopropyl-1,8-dimethyl-2-oxo-imidazo[4,5-g]phthalazin-5-yl)amino]ethyl]benzonitrile], the IC50 is 13.8 nM. Then `Cc1c(C#N)cccc1[C@@H](C)Nc1nnc(C)c2cc3c(cc12)N(C)C(=O)C3(C)C` [Compound 48, 2-methyl-3-[(1R)-1-[(1,3,3,5-tetramethyl-2-oxo-pyrrolo[3,2-g]phthalazin-8-yl)amino]ethyl]benzonitrile], with 13.5 nM; and `Cc1c(C#N)cccc1[C@@H](C)Nc1nnc(C)c2cc3c(cc12)n(C(C)(C)C)c(=O)n3C` [Compound 49, 2-methyl-3-[(1R)-1-[(3-tert-butyl-1,8-dimethyl-2-oxo-imidazo[4,5-g]phthalazin-5-yl)amino]ethyl]benzonitrile], with 11.2 nM. Then `Cc1nnc(N[C@H](C)c2cccc(C(F)(F)F)c2)c2cc3c(cc12)n(C)c(=O)n3CC(F)F` [Compound 50, 3-(2,2-difluoroethyl)-1,8-dimethyl-5-[[(1R)-1-[3-(trifluoromethyl)phenyl]ethyl]amino] imidazo[4,5-g]phthalazin-2-one], with 13.2 nM; and `Cc1nnc(N[C@H](C)c2cc(F)cc(C(F)(F)CO)c2)c2cc3c(cc12)n(C)c(=O)n3C` [Compound 51, 5-[[(1R)-1-[3-(1,1-difluoro-2-hydroxy-ethyl)-5-fluoro-phenyl]ethyl]amino]-1,3,8-trimethyl-imidazo[4,5-g]phthalazin-2-one], with 23.4 nM; and `Cc1nnc(N[C@H](C)c2cccc(C(F)(F)F)c2F)c2cc3c(cc12)n(C)c(=O)n3C1CC1` [Compound 52, 3-cyclopropyl-1,8-dimethyl-5-[[(1R)-1-[2-fluoro-3-(trifluoromethyl)phenyl]ethyl]amino] imidazo[4,5-g]phthalazin-2-one], with 8.13 nM. Then `Cc1nnc(N[C@H](C)c2cccc(C(F)(F)CN)c2F)c2cc3c(cc12)n(C)c(=O)n3C(C)(C)C` [Compound 53, 3-tert-butyl-1,8-dimethyl-5-[[(1R)-1-[3-(2-amino-1,1-difluoro-ethyl)-2-fluoro-phenyl]ethyl]amino]imidazo[4,5-g]phthalazin-2-one], with 5.01 nM. `Cc1c([C@@H](C)Nc2nnc(C)c3cc4c(cc23)n(C)c(=O)n4C)cccc1C(F)(F)F` [Compound 54, 1,3,8-trimethyl-5-[[(1R)-1-[2-methyl-3-(trifluoromethyl)phenyl]ethyl]amino] imidazo[4,5-g]phthalazin-2-one]: the IC50 was 6.17 nM.

(Values after patent publication US20250197407A1 (Jazz Pharmaceuticals Ireland Limited, priority 2022, published 2025).)
